Patent US9163018B2, “Method of treatment of age-related macular degeneration (AMD)” (Prana Biotechnology Limited, priority 2006, dated 2015)

Columns and labels:
[1] = tested on: primary cortical neuronal cultured cells; experiment: Test compound cytotoxicity, MTS assay, primary cortical neuronal cultures; format: cell-based, mouse; conditions: for Cytotox (% viable) Neuronal cells at 1 μM: 1 μM test compound; for Cytotox (% viable) Neuronal cells at 10 μM: 10 μM test compound
Method: Assay 2. Neurotoxicity Assays
Primary Cortical Neuronal Cultures
Media was then replaced with Neurobasal media (Invitrogen Life Technologies) and B27 supplements (Invitrogen Life Technologies). Cultures were maintained at 37° C. in 5% CO2. Prior to experimentation, the culture medium was replaced with Neurobasal media and B27 minus antioxidants (Invitrogen Life Technologies).
(§1) Assay 3. MTS Assay for Cell Viability
(§2) Cell viability is determined using the MTS assay. Culture medium is replaced with fresh neurobasal medium plus B27 supplements minus antioxidants. 1/10th volume MTS solution (Cell Titre 96 Aqueous One, Promega Corporation) and incubated at 37° C., 2 hrs. 200 microliter aliquots are measured with a spectrophotometer at 560 nm.
Assay 4. Assay for Test Compound Cytoxicity
Neuronal cortical cells were cultured for five days as per Assay 2 in NB media and B27 supplement.
On day six the test compounds were added to the neuronal cell cultures in NB media and B27 supplement minus antioxidants.
Test compounds were dissolved in 100% DMSO to a concentration of 2.5 mM (10 mM if excess compound was weighed out per vial—then diluted to 2.5 mM).
Test compounds were not added directly to cells, instead they were added to a 48 well ‘Drug Plate’ as comprised below:
The Drug Plate was incubated at 37° C. for 15 mins. 200 μl of each well was added in triplicate to the corresponding cell plate. The cell plate was incubated at 37 C, for 4 days.
On completion of the assay, 1/10 volume MTS was added per well of plate (ie 25 μl/250 μl). The plates were incubated at 37 C for 2 hrs, and then absorbance was read at 560 nm.

[2] = target: T1, Abeta:Zn (25:50 μM) Synthetic Aggregations (Homo sapiens, UniProt P05067); experiment: Disaggregation of Abeta:Zn synthetic aggregates (ThT fluorescence); format: biochemical; conditions: for Disaggregation % Aggregate reduction at 5 μM: 5 μM test compound; for EC50: Abeta:Zn 25:50 μM aggregates
T1 construct: PB Compound Mediated Dissolution of Aggregated Abeta 1-42; purchased Keck Laboratory, Yale University School of Medicine
Method: PB Compound Mediated Dissolution of Aggregated Abeta 1-42
Abeta1-42, is available from the Keck Laboratory, Yale University School of Medicine. PBS (pH 6.6): Sigma Cat# D-8662. Zn(ZnCl2): BDH Cat#100884E. (Dissolved in water in 1 mM concentration) DMSO: Ajax Cat#2225. Thioflavin T: Sigma Cat# T-3516. (Dissolved in water in 1 mM concentration)
By way of example of an amyloid composition, Abeta is dissolved in distilled water and peptide concentration is assessed by measured absorption at 214 nm in UV spectrometer. An aggregation reactive mixture (per one concentration of one testing compound) is set us as follows: Abeta: 25 μM, ZnCl2 50 μM, ThT 50 μM, PBS to make up to 500 μl. The tube is wrapped with foil and incubated at 37 degrees by rotation for 24 hours. A serial dilution of each test compound is made up in DMSO, for example: 100 μM, 500 μM, 1000 μM, 2500 μM and 5000 μM. The final concentrations are 1, 5, 10, 25 and 50 μM, 5 μl of each of these compounds is placed in a centrifuge tube and 5 μl of DMSO is added to both negative and positive control tubes. 495 μl of aggregates (after 24 hours incubation) is added to the centrifuge tube. The negative control is PBS plus ZnCl2 and ThT and DMSO. The positive control is aggregates plus DMSO. The tubes are incubated at 37 degrees for further 2 hours with rotation. Samples are measured for ThT fluorescence using an LS55 (Perkin Elmer) fluorimeter in a cuvette (500 μl volume). The excitation wavelength is 450 nm and the emission wavelength is 480 nm. Data are analyzed using graph pad prism program. The tested compounds included so called “PB” compounds.

[3] = target: T2, Aβ 1-42 (Homo sapiens, UniProt P05067); experiment: Fluorometric H2O2 assay (inhibition of Abeta H2O2 production); format: biochemical; conditions: concentration required to inhibit 50% of Abeta H2O2 production; read-out: H2O2 IC50
T2 construct: The reaction solutions contained Aβ 1-42 at concentrations
Method: Assay 1. Fluorometric H2O2 Assay
A fluorometric assay was used to test the ability of a test compound to inhibit hydrogen peroxide generation by Aβ in the presence of copper based on dichlorofluoroscein diacetate (DCF; Molecular Probes, Eugene Oreg.). The DCF solution (5 mM) in 100% dimethyl sulphoxide (previously purged with argon for 2 hr at 20° C.) was deacetylated in the presence of 0.25M NaOH for 30 min and neutralized at pH 7.4 to a final concentration of 1 mM. Horseradish peroxidase (HRP) stock solution was prepared to 1 μM at pH 7.4. The reactions were carried out in PBS, pH 7.4 in a 96 well plate (total volume=250 μl/well). […] The reaction mixture was incubated at 37 C for 60 min. […] H2O2 concentration may be established by comparing fluorescence with the H2O2 standards, Inhibition of Aβ H2O2 production was assayed by including a given concentration of test compound(s) in the test wells.

[4] = tested on: M17 human neuroblastoma cells; experiment: Cytotoxicity, M17 human neuroblastoma cells; format: cell-based; conditions: for Cytotox (% viable) M17 cells at 1 μM: 1 μM test compound; for Cytotox (% viable) M17 cells at 10 μM: 10 μM test compound
Method: as §1, §2

T1 sequence (P05067 672-713 limits assumed): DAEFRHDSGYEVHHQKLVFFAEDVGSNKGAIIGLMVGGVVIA
T2 sequence (P05067 672-713 limits assumed): as above

Row | SMILES | Disaggregation % Aggregate reduction at 5 μM [2] [%] | EC50 [2] [µM] | IC50 [3] [µM] | Cytotox (% viable) Neuronal cells at 1 μM [1] [%] | Cytotox (% viable) Neuronal cells at 10 μM [1] [%] | Cytotox (% viable) M17 cells at 1 μM [4] [%] | Cytotox (% viable) M17 cells at 10 μM [4] [%]
1 | Nc1ccccc1NC(=O)c1cc(O)c2cccc(O)c2n1 [PB 986] | 28 | 18.4 | 3.6 | 98 | 82 |  | 
2 | O=c1c(-c2ccc(Cl)cc2)cnc2c(O)cccn12 [PB 1069] | 34.8 | 11.3 | 0.48 | 97 | 42 | 41.2 | 25.8
3 | CNCc1ccc2c(Cl)cc(Cl)c(O)c2n1.Cl [PB 1104] | 19.1 | > 20 | 0.35 | 86 | 78 |  | 
4 | CCN(CC)Cc1ccc2c(Cl)cc(Cl)c(O)c2n1.Cl [PB 1106] | 17.9 | 14.2 | 0.4 | 74 | 70 |  | 
5 | Br.Oc1cccc2c(=S)n(Cc3ccccn3)cnc12 [PB 1113] | 25.5 | > 20 | 3.2 | 97 | 90 |  | 
6 | O=C(Nc1nc2ccc(F)cc2s1)c1cnc2c(O)cccn2c1=O [PB 1174] | 22 | 14.7 | 0.96 |  |  | 60.1 | 34.2
7 | CCCCCn1cnc2c(O)c(I)ccc2c1=O [PB 1176] | 45 | 6.9 | 0.3 |  |  | 86.3 | 38.5
8 | CCN(CC)CCNC(=O)c1cnc2c(O)cccn2c1=O [PB 1199] | 20.4 | > 20 | 1.64 |  |  | 115.2 | 102.7

Continued, in another order:

Row | Disaggregation % Aggregate reduction at 5 μM [2] [%] | EC50 [2] [µM] | IC50 [3] [µM] | SMILES | Cytotox (% viable) Neuronal cells at 1 μM [1] [%] | Cytotox (% viable) Neuronal cells at 10 μM [1] [%] | Cytotox (% viable) M17 cells at 1 μM [4] [%] | Cytotox (% viable) M17 cells at 10 μM [4] [%]
9 | 58.7 | 4.1 | 0.4 | Oc1c(I)cc(I)c2cccnc12 [PB 46] | 91 | 95 |  | 
10 | 17 | > 20 | 0.95 | CCn1cnc2c(O)c(Cl)cc(Cl)c2c1=O [PB 1115] | 93 | 58 | 104.3 | 95.9
11 | 16.8 | > 20 | 1.63 | CCOC(=O)c1cnc2c(O)c(CC)ncc2c1 [PB 1116] | 103 | 92 |  | 
12 | 53 | 4.28 | 0.72 | O=C1c2ccccc2C(=O)N1CCn1cnc2c(O)c(I)ccc2c1=O [PB 1170] |  |  | 127.4 | 104.8
13 | 24 | > 20 | 0.59 | O=C(Cn1cnc2c(O)cccc2c1=O)Nc1ccccn1 [PB 1182] |  |  | 110.1 | 98.2
14 | 49 | 5.27 | 0.54 | CCC(C)Cn1cnc2c(O)cccc2c1=O (stereo not shown) [PB 1184] |  |  | 102.7 | 47.2
15 | 35 | 9.5 | 0.6 | O=C1c2ccccc2C(=O)N1CCn1cnc2c(O)cccc2c1=O [PB 1185] |  |  | 103.9 | 106.5
